According to ChEMBL document CHEMBL5380773, “Novel Feleucin-K3-Derived Peptides Modified with Sulfono-γ-AA Building Blocks Targeting Pseudomonas aeruginosa and Methicillin-Resistant Staphylococcus aureus Infections” (J Med Chem, 2023):
Active and inactive are the calls of the source. No cut-off for these calls is given here. Numbered stars: 1 amine (or outer) side, 2 acyl side, 3 side chain; on linkers, the order of the positions; unused ones are H or OH. Square brackets hold non-standard residues; d marks the D form. Peptide text beside a SMILES is read from it. * marks the point of attachment. X2 = CC(C)C[C@H](N)CN(CC(=O)[*:2])[*:1]; X1 = O=S(=O)(c1ccc(I)cc1)*

Key:
[1] = test system: Staphylococcus aureus; assay: Antibiofilm activity against methicillin resistant Staphylococcus aureus ATCC 33591 assessed as reduction in biofilm thickness; format: functional, organism-based
[2] = test system: Cell membrane; assay: Induction of membrane disruption in Pseudomonas aeruginosa ATCC 27853 assessed as irregular atrophy at low concentration incubated for 24 hrs by SEM analysis; format: subcellular

Question: How did the Activity [1] turn out when `CC(C)C[C@H](N)CN(CC(=O)N[C@@H](CCCCN)C(=O)N[C@@H](CC(C)C)C(=O)N[C@@H](CC(C)C)C(=O)N[C@@H](CCCCN)C(=O)N[C@@H](CCCCN)C(=O)N[C@@H](CC(C)C)C(=O)N[C@@H](CC(C)C)C(N)=O)S(=O)(=O)c1ccc(I)cc1` (X1-[X2]KLLKKLL-NH2) was run?
Answer: Active

Question: And the Activity [2]?
Answer: Active
